Measured values reported in patent US4296107A, “Mildiomycin analogs and a method of production” (Takeda Chemical Industries, Ltd., priority 1979, dated 1981).
≈ marks a conversion by molar mass, not a printed value. Where two headings read alike, the source gives them in different places.

How the values were obtained:
in vivo = conditions: mouse
[1] = system: Penicillium chrysogenum IFO 4626; assay: Antimicrobial spectrum, agar dilution method (in vitro); format: cell-based; conditions: IFO4626, medium A, 28 °C, 40 hr, read-out: Minimal inhibitory concentration
[2] = system: Saccharomyces cerevisiae IFO 0209; assay: as above; format: cell-based; conditions: IFO0209, medium A, 28 °C, 40 hr, read-out: Minimal inhibitory concentration
Totranychus urticae = assay: Miticidal effect on kidney bean seedlings; format: in vivo; conditions: 500 ppm, 28 °C, 20 ml per pot
Procedure: The test on the miticidal effect was carried out. The seedlings (5 days after germination) of kidney bean grown in pots (9 cm in diameter) were inoculated on their main leaves with about 50 female adults of Totranychus urticae, and the test chemical solution was sprayed in 20 ml quantities per pot by means of a spray gun. After spraying, the pots were placed in a phytotron (28° C.), and a number of surving mites on leaves was investigated at the 5th and 7th day to determine a decrease rate against a number of mites immediately before spraying [=(number of mites tested-number of surving mites)/(number of mites tested)×100].

[3] = system: Rhodotorula rubra IFO 0870; assay: Antimicrobial spectrum, agar dilution method (in vitro); format: cell-based; conditions: IFO0870, medium A, 28 °C, 40 hr, read-out: Minimal inhibitory concentration
[4] = system: Proteus vulgaris IFO 3045; assay: as above; format: cell-based; conditions: IFO3045, medium B, 37 °C, 20 hr, read-out: Minimal inhibitory concentration
Source text: (§1) B 0.5% of Ehrlich's meat extract, 0.5% of polypeptone, 0.5% of NaCl, 1.5%

[5] = system: Escherichia coli IFO 12734; assay: as above; format: cell-based; conditions: IFO12734, medium B, 37 °C, 20 hr, read-out: Minimal inhibitory concentration
Source text: as §1

[6] = system: Bacillus subtilis IFO 3513; assay: as above; format: cell-based; conditions: IFO3513, medium B, 37 °C, 20 hr, read-out: Minimal inhibitory concentration
Source text: as §1

[7] = system: fungi of late blight of tomato; format: in vivo; conditions: tomato plants in pots, 4 days, nontreated group taken as 100%
[8] = system: Guignardia laricina IFO 7886; assay: Antimicrobial spectrum, agar dilution method (in vitro); format: cell-based; conditions: Neofusicoccum laricinum, IFO7886; medium A, 28 °C, 88 hr; read-out: Minimal inhibitory concentration
[9] = system: Mycobacterium phlei IFO 3158; assay: as above; format: cell-based; conditions: Mycolicibacterium phlei, IFO3158; medium C, 37 °C, 40 hr; read-out: Minimal inhibitory concentration
Source text: (§2) C 3.0% of glycerin, 0.5% of Ehrlich's meat extract, 0.5% of NaCl, 1.5% of […]

[10] = system: Mycobacterium smegmatis ATCC 607; assay: as above; format: cell-based; conditions: Mycolicibacterium smegmatis, ATCC607; medium C, 37 °C, 40 hr; read-out: Minimal inhibitory concentration
Source text: as §2

powdery mildew of barley = assay: Controlling effect against powdery mildew of barley (method of Iwasa et al.); format: in vivo; conditions: in words
Source text: The controlling effect against powdery mildew of barley was investigated according to the method of Iwasa, et. al. (The Journal of Antibiotics, vol. 31, No. 6, pp. 512, 1978).

Solubilities = format: physicochemical; conditions: free base
[11] = system: Cochlioborus miyabeanus IFO 5277; assay: Antimicrobial spectrum, agar dilution method (in vitro); conditions: 40 h, read-out: Minimal inhibitory concentration
[12] = system: Sclerotinia sclerotiorum IFO 9395; assay: as above; format: cell-based; conditions: IFO9395, medium A, 28 °C, 40 hr, read-out: Minimal inhibitory concentration
some bacteria = assay: Antimicrobial spectrum, agar dilution method (in vitro), summary in words; format: cell-based

| SMILES | LD50 (in vivo; ip) [mg/kg] | LD50 (in vivo; iv) [mg/kg] | LD50 (in vivo; sc) [mg/kg] | MIC [1] [µg/mL] | MIC [2] [µg/mL] | Decrease rate against number of mites immediately before spraying, 5th day (Totranychus urticae) | Decrease rate against number of mites immediately before spraying, 7th day (Totranychus urticae) | MIC [3] [µg/mL] | MIC [4] [µg/mL] | MIC [5] [µg/mL] | MIC [6] [µg/mL] | Percent area of lesions ([7]; 150 ppm) [%] | Percent area of lesions ([7]; 200 ppm) [%] | Percent area of lesions ([7]; 250 ppm) [%] | Percent area of lesions ([7]; 300 ppm) [%] | Percent area of lesions ([7]; 500 ppm) [%] | MIC [8] [µg/mL] | MIC [9] [µg/mL] | MIC [10] [µg/mL] | controlling effect against powdery mildew of barley (powdery mildew of barley) | further results |
| --- | --- | --- | --- | --- | --- | --- | --- | --- | --- | --- | --- | --- | --- | --- | --- | --- | --- | --- | --- | --- | --- |
| N=C(N)NCC(O)CC(O)(C(=O)O)C1OC(n2cc(F)c(N)nc2=O)C=CC1NC(=O)C(N)CO (stereo not shown) [Example 7] | > 200 | > 100 | > 200 | 250 (≈ 498 µM) | 100 (≈ 199 µM) | 100 | 100 | < 10 | > 500 | 250 (≈ 498 µM) | 250 (≈ 498 µM) | 100 | 16 | 0 | 0 | 0 | 250 (≈ 498 µM) | 25 (≈ 49.8 µM) | 100 (≈ 199 µM) | greatly effective | solubility in organic solvents (Solubilities): less soluble; solubility in water (Solubilities): Easily soluble; MIC [11]: 100 µg/mL (≈ 199 µM); MIC [12]: 250 µg/mL (≈ 498 µM) |
| Cc1cn(C2C=CC(NC(=O)C(N)CO)C(C(O)(CC(O)CNC(=N)N)C(=O)O)O2)c(=O)nc1N (stereo not shown) [Example 6] | > 200 | > 100 | > 200 | 250 (≈ 502 µM) | 100 (≈ 201 µM) | 100 | 100 | < 10 | > 500 | 250 (≈ 502 µM) | 250 (≈ 502 µM) | 100 | 17 | 0 | 0 | 0 | 250 (≈ 502 µM) | 50 (≈ 100 µM) | 100 (≈ 201 µM) | greatly effective | solubility in organic solvents (Solubilities): less soluble; solubility in water (Solubilities): Easily soluble; MIC [11]: 100 µg/mL (≈ 201 µM); MIC [12]: 250 µg/mL (≈ 502 µM) |
| N=C(N)NCC(O)CC(O)(C(=O)O)C1OC(n2cc(Br)c(N)nc2=O)C=CC1NC(=O)C(N)CO (stereo not shown) [Example 5] | > 200 | > 100 | > 200 | 250 (≈ 444 µM) | 100 (≈ 178 µM) | 100 | 100 | < 10 | 250 (≈ 444 µM) | 100 (≈ 178 µM) | 250 (≈ 444 µM) | 100 | 11 | 0 | 0 | 0 | 250 (≈ 444 µM) | 25 (≈ 44.4 µM) | 25 (≈ 44.4 µM) | greatly effective | solubility in organic solvents (Solubilities): less soluble; solubility in water (Solubilities): Easily soluble; MIC [11]: 100 µg/mL (≈ 178 µM); MIC [12]: 500 µg/mL (≈ 888 µM); antimicrobial activity against some bacteria (some bacteria): remarkably strong antimicrobial activity |
| N=C(N)NCC(O)CC(O)(C(=O)O)C1OC(n2ccc(N)nc2=O)C=CC1NC(=O)C(N)CO (stereo not shown) [Example 2] | > 200 | > 100 | > 200 | 250 (≈ 516 µM) | 100 (≈ 206 µM) | 100 | 100 | < 10 | > 500 | 250 (≈ 516 µM) | 250 (≈ 516 µM) | 55 | 0 | 0 | 0 | 0 | 250 (≈ 516 µM) | 50 (≈ 103 µM) | 100 (≈ 206 µM) | greatly effective | solubility in organic solvents (Solubilities): less soluble; solubility in water (Solubilities): Easily soluble; MIC [11]: 100 µg/mL (≈ 206 µM); MIC [12]: 250 µg/mL (≈ 516 µM) |
